Target: T1, human brain-derived dopamine D4 receptor (Homo sapiens, UniProt P21917)
T1 construct: expressed in transfected cells; host or cells: CHO (CHO-K1) or HEK293 cells
T1 sequence (P21917 1-419): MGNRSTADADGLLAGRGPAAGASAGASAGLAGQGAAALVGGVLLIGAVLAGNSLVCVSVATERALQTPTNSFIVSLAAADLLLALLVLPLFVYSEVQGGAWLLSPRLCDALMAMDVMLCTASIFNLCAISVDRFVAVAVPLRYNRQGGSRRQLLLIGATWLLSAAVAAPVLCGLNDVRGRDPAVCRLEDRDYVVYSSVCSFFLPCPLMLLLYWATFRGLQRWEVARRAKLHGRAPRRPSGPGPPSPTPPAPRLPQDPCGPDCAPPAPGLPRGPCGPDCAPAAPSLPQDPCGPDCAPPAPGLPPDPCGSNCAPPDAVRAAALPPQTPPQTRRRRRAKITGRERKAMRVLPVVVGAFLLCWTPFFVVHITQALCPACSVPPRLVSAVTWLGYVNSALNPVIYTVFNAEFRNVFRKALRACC
Assay: Agonistic activity in G protein dependent pathway of dopamine D4 receptor (aequorin intracellular calcium luminescence, FDSS)
Type: cell-based
Conditions: for EC50: concentration required to achieve a 50% response of Emax, CHO-K1 or HEK293 cells transfected with D4 receptor; for Emax: read-out: Maximal activity on D4 receptor (%)
Excerpt: The G protein dependent pathway is a pathway for transmitting signals in cells via a second messenger by stimulating a G protein through the binding of guanosine triphosphate (GTP) to the G protein. When GPCRs are activated by the binding of a ligand, a G protein binds to the GPCRs, and thereby GTP binds to a Gα subunit that is one of G protein subunits and a Gγβ subunit is dissociated. The activated Gα subunit regulates intracellular cAMP levels by the activation or inhibition of an adenylate cyclase, and regulates intracellular calcium levels by the activation of phospholipase C to transmit signals in cells.
The agonistic activities of the present compounds in the G protein dependent pathway were evaluated on the basis of intracellular calcium levels as follows. CHO-K1 or HEK293 cell lines transfected with D4 receptor genes were seeded in a 384-well plate, and incubated in a CO2 incubator at 37° C. for 24 hours, and then a solution of the present compound in DMSO was added into cells preloaded with coelenterazine to measure the change in luminescent signals with a FDSS (Hamamatsu Photonics K.K.). […] The agonistic activity of the present compound was calculated according to the measured luminescent signals, as the maximal activity (Emax) of the present compound. EC50 value was calculated as the concentration of the present compound required to achieve a 50% response of Emax.

| EC50 [nM] | Emax [%] | SMILES |
| --- | --- | --- |
| 36 | 68 | Cc1ccc(CN2CCn3nc(-c4ncccc4F)cc3C2)nc1 [Example 109] |
| 18 | 99 | Cc1ccc(CN2CCn3nc(-c4ccccn4)c(C)c3C2)nc1 [Example 110] |
| 33 | 65 | Cc1ccc(CN2CCn3nc(-c4ncccc4C)c(C)c3C2)cc1 [Example 72] |
| 11 | 70 | Cc1cccnc1-c1cc2n(n1)CCN(Cc1n[nH]c3c(F)cccc13)C2 [Example 40] |
| 26 | 74 | Cc1cccc(CN2CCn3nc(-c4ncccc4F)cc3C2)n1 [Example 161] |
| 42 | 62 | Cc1c(-c2ccccn2)nn2c1CN(Cc1ccc(CF)nc1)CC2 [Example 134] |
| 61 | 49 | Cc1ccccc1CN1CCn2nc(-c3ccccn3)cc2C1 [Example 26] |
| 87 | 56 | Cc1ncc(CN2CCn3nc(-c4ccccn4)c(F)c3C2)c(N)n1 [Example 141] |
| 32 | 50 | Cc1cccnc1-c1cc2n(n1)CCN(Cc1ccc(Cl)c(C)n1)C2 [Example 178] |
| 17 | 69 | Cn1nc(CN2CCn3nc(-c4ncccc4F)cc3C2)c2ccccc21 [Example 167] |
| 44 | 50 | CC(C)c1ncc(CN2CCn3nc(-c4ncccc4F)cc3C2)cn1 [Example 204] |
| 108 | 42 | Cc1cccnc1-c1cc2n(n1)CCN(Cc1cc(OC(F)(F)F)ccc1F)C2 [Example 64] |
| 1 | 66 | Cc1c(-c2ccccn2)nn2c1CN(Cc1ccc(C(F)(F)F)cn1)CC2 [Example 108] |
| 51 | 80 | Fc1ccc(CN2CCn3nc(-c4ncccc4F)cc3C2)cn1 [Example 169] |
| 38 | 63 | Cc1cccnc1-c1cc2n(n1)CCN(Cc1ccc(CF)c(C)n1)C2 [Example 180] |
| 10 | 99 | Cc1ccc(CN2CCn3nc(-c4ncccc4C)cc3C2)cc1 [Example 53] |
| 23 | 98 | Cc1ccc(CN2CCn3nc(-c4ncccc4F)c(C)c3C2)nc1 [Example 120] |
| 40 | 77 | N#Cc1cc(CN2CCn3nc(-c4ccccn4)cc3C2)ccc1F [Example 36] |
| 84 | 72 | Cc1c(-c2ncccc2F)nn2c1CN(Cc1ccc(C(F)(F)F)cc1)CC2 [Example 83] |
| 30 | 58 | Cc1cccnc1-c1nn2c(c1C)CN(Cc1ccccc1)CC2 [Example 73] |
| 92 | 64 | Cc1cnc(CN2CCn3nc(-c4ncccc4F)cc3C2)cn1 [Example 159] |
| 49 | 85 | Cc1cccnc1-c1cc2n(n1)CCN(Cc1ccc(Cl)cn1)C2 [Example 97] |
| 44 | 63 | Cc1cc(CN2CCn3nc(-c4ncccc4C)cc3C2)cnc1C [Example 188] |
| 12 | 78 | Cc1cccnc1-c1cc2n(n1)CCN(Cc1ccc(Cl)cc1)C2 [Example 56] |
| 4.3 | 87 | Cc1cccnc1-c1cc2n(n1)CCN(Cc1n[nH]c3ccccc13)C2 [Example 35] |
| 82 | 65 | Cn1nc2ccccc2c1CN1CCn2nc(-c3ncccc3F)cc2C1 [Example 168] |
| 101 | 36 | Fc1cccnc1-c1cc2n(n1)CCN(Cc1cnc(C(F)F)nc1)C2 [Example 199] |
| 47 | 39 | Cc1cccnc1-c1cc2n(n1)CCN(Cc1cnn3ccccc13)C2 [Example 89] |

| EC50 [nM] | Emax [%] | SMILES |
| --- | --- | --- |
| 36 | 58 | Cc1cccnc1-c1cc2n(n1)CCN(Cc1cccc(Cl)c1)C2 [Example 59] |
| 84 | 46 | c1ccc(-c2cc3n(n2)CCN(Cc2cccc4[nH]cnc24)C3)nc1 [Example 14] |
| 116 | 65 | c1ccc(-c2cc3n(n2)CCN(Cc2ccc4[nH]ncc4c2)C3)nc1 [Example 13] |
| 63 | 41 | Fc1c(-c2ccccn2)nn2c1CN(Cc1ccccc1)CCC2 [Example 33, 5-Benzyl-3-fluoro-2-(pyridin-2-yl)-5,6,7,8-tetrahydro-4H-pyrazolo[1,5-a][1,4]diazepine] |
| 90 | 48 | Cc1cccnc1-c1cc2n(n1)CCN(Cc1cc3ccccc3n1C)C2 [Example 146] |
| 152 | 48 | Cc1ncc(CN2CCn3nc(-c4ncccc4C)cc3C2)cn1 [Example 170] |
| 100 | 50 | Cc1nc2c(CN3CCn4nc(-c5ccccn5)cc4C3)cccc2[nH]1 [Example 42] |
| 62 | 47 | Cc1cccnc1-c1cc2n(n1)CCN(Cc1cn3c(n1)CCCC3)C2 [Example 87] |
| 26 | 98 | Cc1cccnc1-c1cc2n(n1)CCN(Cc1n[nH]c3ccc(F)cc13)C2 [Example 44] |
| 32 | 66 | Cc1cc(CN2CCn3nc(-c4ncccc4C)cc3C2)cnc1Cl [Example 187] |
| 22 | 66 | Cc1ccc(CN2CCn3nc(-c4ncccc4C)cc3C2)nc1C [Example 131] |
| 47 | 59 | Nc1nc(C(F)(F)F)ccc1CN1CCn2nc(-c3ccccn3)cc2C1 [Example 21] |
| 71 | 65 | Cc1cccnc1-c1cc2n(n1)CCN(Cc1ccc(C(F)(F)F)cc1F)C2 [Example 47] |
| 56 | 89 | Cc1c(-c2ncccc2F)nn2c1CN(Cc1ccc(C(F)(F)F)nc1)CC2 [Example 127] |
| 47 | 76 | Cc1c(-c2ncccc2F)nn2c1CN(Cc1ccc3c(n1)CCCC3)CC2 [Example 124] |
| 41 | 66 | Cc1cccnc1-c1cc2n(n1)CCN(Cc1ccc3c(n1)CCCC3)C2 [Example 112] |
| 116 | 51 | Cc1cnc(CN2CCn3nc(-c4ncccc4C)cc3C2)c(F)c1 [Example 184] |
| 11 | 51 | Fc1c(-c2ccccn2)nn2c1CN(Cc1ccccc1)CC2 [Example 78] |
| 60 | 83 | COc1ccccc1-c1cc2n(n1)CCN(Cc1ccc(F)c(C#N)c1)C2 [Example 18] |
| 0.5 | 62 | Cc1cccc(CN2CCn3nc(-c4ccccn4)cc3C2)c1 [Example 27] |
| 22 | 81 | Cc1cccnc1-c1cc2n(n1)CCN(Cc1ccc(F)cc1)C2 [Example 58] |
| 59 | 50 | N#Cc1ccc(CN2CCn3nc(-c4ncccc4F)cc3C2)cc1 [Example 69] |
| 59 | 62 | Fc1cccnc1-c1cc2n(n1)CCN(Cc1ccc(C(F)(F)F)nc1)C2 [Example 162] |
| 18 | 70 | Cc1cccnc1-c1cc2n(n1)CCN(Cc1ccc(C(F)F)cc1)C2 [Example 80] |
| 46 | 84 | Cc1ccc(CN2CCn3nc(-c4ncccc4F)c(C)c3C2)cn1 [Example 121] |
| 49 | 44 | Cc1cccnc1-c1cc2n(n1)CCN(Cc1cc3n(n1)CCCC3)C2 [Example 91] |
| 45 | 33 | Fc1cccnc1-c1cc2n(n1)CCN(Cc1cnc(C(F)(F)F)nc1)C2 [Example 198] |

— US20160318933A1, “FUSED PYRAZOLE DERIVATIVE” (SUMITOMO DAINIPPON PHARMA CO., LTD., priority 2013, published 2016)
